Source: the NIST ThermoML archive (doi:10.1016/j.jct.2008.04.006)

How the values were obtained:
[1] = 100 kPa, Liquid
[2] = refractive index (Na D-line) (dimensionless); settings: 298.15 K; 101.33 kPa; Liquid; Standard Abbe refractometry
[3] = xn = mol fraction of the nth substance listed; settings: 100 kPa, Liquid
[4] = refractive index (Na D-line) (dimensionless); xn = mol fraction of the nth substance listed; settings: 298.15 K, 100 kPa, Liquid, Standard Abbe refractometry

COS(=O)(=O)[O-].Cn1cc[n+](C)c1 [1,3-dimethylimidazolium methylsulfate]
[1]
Settings | mass density [kg/m3] | viscosity [mPa·s]
298.15 K | 1329.12 | 77.7
313.15 K | 1318.56 | 41.68
328.15 K | 1308.13 | 25.21

Settings | refractive index
[2] | 1.48296

CCO [ethanol] + COS(=O)(=O)[O-].Cn1cc[n+](C)c1
[3], x1 = 1
Settings | mass density [kg/m3] | viscosity [mPa·s]
298.15 K | 785.46 | 1.082
313.15 K | 772 | 0.827
328.15 K | 758.55 | 0.641

Settings | refractive index
[4], x1 = 1 | 1.36023

COS(=O)(=O)[O-].Cn1cc[n+](C)c1 [1,3-dimethylimidazolium methylsulfate] + CCO
[3]
Settings | mass density, 298.15 K [kg/m3] | mass density, 313.15 K [kg/m3] | mass density, 328.15 K [kg/m3] | viscosity, 298.15 K [mPa·s] | viscosity, 313.15 K [mPa·s] | viscosity, 328.15 K [mPa·s]
x2 = 0 | 1329.12 | 1318.56 | 1308.13 | 77.7 | 41.68 | 25.21
x2 = 0.0669 | 1316.47 | 1305.89 | 1295.53 | 62.1 | 34.42 | 21.43
x2 = 0.1228 | 1305.19 | 1294.59 | 1284.2 | 51.6 | 29.38 | 18.72
x2 = 0.2212 | 1282.46 | 1271.77 | 1261.38 | 36.97 | 22.8 | 15.07
x2 = 0.2944 | 1263.18 | 1252.46 | 1241.97 | 29.56 | 17.97 | 12.28
x2 = 0.3984 | 1231.22 | 1220.4 | 1209.57 | 20.26 | 12.87 | 9.141
x2 = 0.5 | 1192.8 | 1181.88 | 1171.12 | 12.83 | 8.823 | 6.461
x2 = 0.5926 | 1150.85 | 1139.74 | 1128.74 | 8.784 | 6.258 | 4.727
x2 = 0.6921 | 1094.3 | 1082.98 | 1071.75 | 5.706 | 4.309 | 3.246
x2 = 0.797 | 1018.1 | 1006.41 | 994.72 | 3.513 | 2.649 | 2.077
x2 = 0.8957 | 923.16 | 910.98 | 898.7 | 2.096 | 1.603 | 1.265
x2 = 0.945 | 864.26 | 851.76 | 839.06 | 1.602 | 1.225 | 0.961

[4]
Settings | refractive index
x2 = 0 | 1.48296
x2 = 0.0669 | 1.48028
x2 = 0.1228 | 1.47773
x2 = 0.2212 | 1.47336
x2 = 0.2944 | 1.46936
x2 = 0.3984 | 1.46252
x2 = 0.5 | 1.45421
x2 = 0.5926 | 1.44554
x2 = 0.6921 | 1.43248
x2 = 0.797 | 1.41494
x2 = 0.8957 | 1.39329
x2 = 0.945 | 1.37874

CCO [ethanol]
[1]
Settings | mass density [kg/m3] | viscosity [mPa·s]
298.15 K | 785.46 | 1.082
313.15 K | 772 | 0.827
328.15 K | 758.55 | 0.641

Settings | refractive index
[2] | 1.36023

COS(=O)(=O)[O-].Cn1cc[n+](C)c1 [1,3-dimethylimidazolium methylsulfate] + O
[3]
Settings | mass density, 298.15 K [kg/m3] | mass density, 313.15 K [kg/m3] | mass density, 328.15 K [kg/m3] | viscosity, 298.15 K [mPa·s] | viscosity, 313.15 K [mPa·s] | viscosity, 328.15 K [mPa·s]
x2 = 0 | 1329.12 | 1318.56 | 1308.13 | 77.7 | 41.68 | 25.21
x2 = 0.0497 | 1326.99 | 1316.44 | 1306.09 | 68.1 | 37.51 | 23.95
x2 = 0.1475 | 1322.81 | 1312.31 | 1301.96 | 53.6 | 30.44 | 19.85
x2 = 0.2128 | 1319.54 | 1309.03 | 1298.64 | 44.93 | 25.86 | 17.11
x2 = 0.3086 | 1313.75 | 1303.27 | 1292.81 | 35.23 | 20.76 | 13.79
x2 = 0.3869 | 1307.71 | 1297.25 | 1286.89 | 27.57 | 16.93 | 10.5
x2 = 0.4947 | 1296.97 | 1286.56 | 1276.22 | 19.55 | 12.41 | 8.521
x2 = 0.5959 | 1282.77 | 1272.39 | 1262.04 | 13.88 | 9.041 | 6.336
x2 = 0.6947 | 1262.17 | 1251.91 | 1240.95 | 9.599 | 6.368 | 4.518
x2 = 0.7966 | 1226.82 | 1216.82 | 1206.64 | 5.928 | 4.027 | 2.917
x2 = 0.8962 | 1162.06 | 1152.98 | 1143.43 | 2.925 | 2.069 | 1.548
x2 = 0.9485 | 1100.41 | 1092.64 | 1084.03 | 1.745 | 1.261 | 0.99

[4]
Settings | refractive index
x2 = 0 | 1.48296
x2 = 0.0497 | 1.48187
x2 = 0.1475 | 1.47986
x2 = 0.2128 | 1.47824
x2 = 0.3086 | 1.47536
x2 = 0.3869 | 1.47252
x2 = 0.4947 | 1.46739
x2 = 0.5959 | 1.46071
x2 = 0.6947 | 1.45105
x2 = 0.7966 | 1.43485
x2 = 0.8962 | 1.40572
x2 = 0.9485 | 1.37848
